Where two headings read alike, the source gives them in different places.
What was measured:
CDK6/cyclin D1 = CDK6/cyclin D1 (Homo sapiens (Human), UniProt Q00534); test: CDK6/cyclin D1 enzymatic activity (Lance Ultra); assay type: biochemical; settings: 180 minutes
Protocol: The components of the buffer included 50 mM hydroxyethylpiperazine ethanesulfonic acid solution (pH 7.5), 1 mM ethylenediaminetetraacetic acid, 10 mM magnesium chloride, 0.01% Brij-35, and 2 mM dithiothreitol.

[1] = tested on: human lung cancer LU-01-0393 subcutaneous xenograft tumor; test: In vivo drug efficacy study (II): human lung cancer LU-01-0393 subcutaneous xenograft tumor model; set-up: species or system BALB/c nude mice; settings: 45 mg/kg PO QD × 3W
Text: Cell line-derived xenograft (CDX) BALB/c nude mice that were female, 6- to 8-week old, weighed 17 to 20 g, and subcutaneously implanted with human tumor cell line derived from LU-01-0393 lung cancer patient were used. A total of 72 mice were needed and were purchased from Shanghai Xipuer-Bikai Experimental Animal Co., Ltd. Human lung cancer LU-01-0393 tumor (i.e., non-small cell lung cancer) was originally derived from a clinical sample of a surgical resection. It was defined as passage PO after being inoculated to nude mice, and the tumor of passage PO was re-inoculated to nude mice and was then defined as passage P1, and so forth. Passage was performed in nude mice. LU-01-0393-FP5 was obtained from the transplantation after the recovery of P4. This study would use the tumor tissue of passage FP6.
BALB/c nude mice that were female, 6- to 8-week old, and weighed approximately 17 to 20 g were used. The mice were maintained in separate ventilated cages in a special pathogen-free environment. All the cages, bedding and water were disinfected prior to use. All the animals were free to access a standard certified commercial laboratory diet. A total of 72 mice purchased from Shanghai Xipuer-Bikai Experimental Animal Co., Ltd. were used for the study. The LU-01-0393 FP6 tumor tissue was cut to 20 to 30 mm^3 and inoculated to the right back of each mouse to wait for the tumor growth. When the average tumor volume reached about 171 mm^3, the mice were randomized into groups and administered. The test compounds were orally administered daily, and the administration dosages were as shown in the above table. The tumor diameters were measured twice a week using a two-dimensional caliper. The tumor volumes were calculated by the following formula: V=0.5 a×b^2, wherein a and b were the long diameter and the short diameter of a tumor, respectively. The anti-tumor efficacy was determined by dividing the average increase of the tumor volumes of the animals treated with a compound by the average increase of the tumor volumes of the animals without being treated with the compound.

[2] = tested on: MCF-7 breast cancer cells; test: Inhibition assay of the A crystal form of WX_1 on MCF-7 breast cancer cell proliferation (CellTiter-Glo); assay type: cell-based; settings: Homo sapiens, MCF7, 144 h; MCF-7 cells, 6 days
Protocol: RPMI 1640 medium, fetal bovine serum and penicillin/streptomycin as antibiotics were purchased from Promega (Madison, Wis.). The MCF-7 cell line was purchased from the European Collection of Authenticated Cell Cultures (ECACC). Envision MultiLabel Plate Reader (PerkinElmer).
MCF-7 cells were seeded in a black 384-well plate with 45 μL of cell suspension (containing 200 MCF-7 cells) per well. The cell plate was placed in a carbon dioxide incubator for overnight culture.
The test compounds were diluted 3 times to the 10th concentration with Bravo, i.e., diluted from 10 μM to 0.508 nM, and a duplicate-well experiment was set. The medium was added to the middle plate in an amount of 49 μL per well. The gradient-diluted compounds were transferred in an amount of 1 μL per well to the middle plate according to the corresponding positions, and the mixture was mixed evenly and transferred to the cell plate in an amount of 5 μL per well. The cell plate was incubated in a carbon dioxide incubator for 6 days.
Promega CellTiter-Glo reagent was added to the cell plate in an amount of […] per well, and incubated for 10 minutes at room temperature to stabilize the luminescence signal. Reading was performed using a PerkinElmer Envision Multilabel Plate Reader.

[3] = Solubility tests in different vehicles (HPLC); assay type: physicochemical; settings: 26 °C, thermodynamic from solid, room temperature 25 to 27° C.
Protocol: Samples (about 2 mg) (if the sample was a salt, the required amount of the salt was calculated according to the salt factor in accordance with the criterion that the compound of formula (I) was 2 mg) were weighed respectively and added to a 1.5 mL glass vial. Different vehicles (1 mL) were then added respectively. The above-mentioned suspension was placed on a magnetic stirrer for stirring (room temperature 25 to 27° C.). After stirring for 24 hours, samples were taken. The samples were first centrifuged, and the supernatants were taken. After appropriate dilution according to the situation of the dissolution, the concentrations were determined by HPLC. The results were as follows:
Notes: • FaSSIF: to simulate the intestinal fluid in the small intestine of human in a hunger state before meal; • FeSSIF: to simulate the intestinal fluid in the small intestine of human in a full state after meal; • SGF: to simulate the gastric juice in the empty stomach of human in a hunger state

[4] = tested on: human breast cancer MCF-7 subcutaneous xenograft tumor; assay type: in vivo; settings: 18.75 mg/kg PO QD × 3W
Text: Cell line-derived xenograft (CDX) BALB/c nude mice that were female, 6- to 8-week old, weighed 20 g, and subcutaneously implanted with human tumor cell line derived from MCF-7 breast cancer patients were used. A total of 150 mice were needed, which were purchased from Beijing Vital River Laboratory Animal Technology Co., Ltd.
BALB/c nude mice that were female, 6- to 8-week old, and weighed approximately 20 g were used. The mice were maintained in separate ventilated cages (10 mice per cage) in a special pathogen-free environment. All the cages, bedding and water were disinfected prior to use. All the animals were free to access a standard certified commercial laboratory diet. A total of 150 mice were purchased from Beijing Vital River Laboratory Animal Technology Co., Ltd. for research. Each mouse was implanted subcutaneously with an estrogen tablets (0.18 mg/tablet, 60-day sustained release) in the left back. After 3 days, each mouse was implanted with tumor cells (10×10^6 in 0.2 mL of phosphate buffer) subcutaneously in the right back for tumor growth. Administration was started when the average tumor volume reached about 150 to 200 mm^3. The test compounds were orally administered daily, and the administration dosages were as shown in the above table. The tumor volumes were measured twice a week using a two-dimensional caliper. The volumes were expressed in cubic millimeters and calculated by the following formula: V=0.5 a×b^2, wherein a and b were the long diameter and short diameter of a tumor, respectively. The anti-tumor efficacy was determined by dividing the average increase of the tumor volumes of the animals treated with a compound by the average increase of the tumor volumes of the animals without being treated with the compound.

Chain of CDK6/cyclin D1 (Q00534 whole entry): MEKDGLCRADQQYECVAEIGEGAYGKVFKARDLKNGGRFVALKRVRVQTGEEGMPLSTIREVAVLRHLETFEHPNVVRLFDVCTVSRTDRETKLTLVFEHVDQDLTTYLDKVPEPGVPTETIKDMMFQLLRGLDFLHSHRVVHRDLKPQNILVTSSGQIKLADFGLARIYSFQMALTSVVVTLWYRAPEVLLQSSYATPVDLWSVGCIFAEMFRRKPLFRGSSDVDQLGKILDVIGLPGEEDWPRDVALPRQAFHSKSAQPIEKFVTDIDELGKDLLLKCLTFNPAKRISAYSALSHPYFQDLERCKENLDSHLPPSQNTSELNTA
Chain of CDK6/cyclin D1 (P24385 whole entry partner): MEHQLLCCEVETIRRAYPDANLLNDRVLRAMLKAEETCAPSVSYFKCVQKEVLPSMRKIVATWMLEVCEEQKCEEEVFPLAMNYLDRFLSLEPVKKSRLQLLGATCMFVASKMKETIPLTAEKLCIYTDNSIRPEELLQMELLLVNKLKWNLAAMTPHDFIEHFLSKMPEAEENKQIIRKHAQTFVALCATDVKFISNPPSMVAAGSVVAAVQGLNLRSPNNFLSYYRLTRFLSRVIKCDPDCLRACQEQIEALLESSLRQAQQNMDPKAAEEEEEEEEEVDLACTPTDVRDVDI

Compound: CC(C)c1c2cc(-c3nc(Nc4ccc(N5CCNCC5)cn4)ncc3F)ccc2nn1C.O=C(O)/C=C\C(=O)O [A crystal form of compound WX_1]
- IC50 (CDK6/cyclin D1): < 0.8 nM
- Tumor volume Day 0 ([1]; Day 0): 171 ± 26 mm^3
- Tumor volume Day 7 ([1]; Day 7): 172 ± 33 mm^3
- Tumor volume Day 14 ([1]; Day 14): 150 ± 29 mm^3
- Tumor volume Day 21 ([1]; Day 21): 175 ± 42 mm^3
- IC50 [2]: 70 nM
- solubility at 24 h ([3]; simulated gastric fluid, SGF, read-out: Solubility SGF): > 2000 µg/mL
- solubility at 24 h ([3]; FaSSIF, read-out: Solubility FaSSIF): 23 µg/mL
- solubility at 24 h ([3]; FeSSIF, read-out: Solubility FeSSIF): 1600 µg/mL
- solubility at 24 h ([3]; water, water, H2O, read-out: Solubility H2O): 1140 µg/mL
- Tumor volume Day 0 ([4]; Day 0): 153 mm^3
- Tumor volume Day 7 ([4]; Day 7): 156 mm^3
- Tumor volume Day 14 ([4]; Day 14): 136 mm^3
- Tumor volume Day 20 ([4]; Day 20): 98 mm^3
